Source: patent US20160303000A1, “COMPOSITION AND METHOD FOR REDUCING BACTERIAL BIOFILM FORMATION IN CONNECTION WITH A DENTAL PROCEDURE” (Loma Linda University, priority 2011, published 2016)

Test system: mixed culture consortium of three root canal isolates, E. faecalis, L. salivarius and S. gordonii
Test: biofilm formation in mini-flow chamber system, CSLM with LIVE/DEAD staining
Assay type: cell-based
Description: First, a microbial consortium was created using bacterial strains, E. faecalis, L. salivarius and S. gordonii which were isolated from endodontic therapy associated with persistent infections. The strains were stored at −70° C. using skim milk powder (Oxoid, Cambridge, United Kingdom), diluted in double distilled water and were recovered on blood agar in an atmosphere of 5% CO2 in hydrogen at 37° C. for 24 hours. Then, four to five colonies of each strain were transferred into liquid growth medium (Todd-Hewitt broth) and incubated in an atmosphere of 5% CO2 in hydrogen at 37° C. The optical densities (OD600) of the liquid cultures were monitored until exponential growth was reached, that is, until OD600 values of 0.6±0.1. The cells were harvested by centrifugation (3000 g, five minutes at 4° C.), washed in 10 mM PBS and re-suspended in Todd-Hewitt broth to an approximate cell concentration of 1×108 ml^−1. […]
Then, the mini-flow chamber biofilms were inspected. […] CSLM images were analyzed in 2 and 3-D by using the software bioimage_L. […]
Each experiment was repeated three times and the statistical analysis was performed by two-way analysis of variance (ANOVA). Two-way ANOVA detected any significant variation among biofilms formed on surfaces pre-conditioned with the composition according to the present invention, NaOCl and the uncoated controls. […]

Structure (SMILES): [Na+].[O-]Cl [NaOCl]
- viability of biofilm cells (LIVE/DEAD staining) (all tests, proportions of green-viable cells): not compromised
- biovolume of biofilms relative to composition-preconditioned surfaces and uncoated controls (preconditioned surfaces): intermediate
